Results on three compounds are retold here after patent publication US12263248B2, “Compounds and compositions for intracellular delivery of therapeutic agents” (ModernaTX, Inc., priority 2018, dated 2025).

The nature of series [1]: Particle size and polydispersity index of nanoparticle compositions (Zetasizer Nano ZS). Format: physicochemical. In short, it runs like this:
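In 1×PBS, the compositions were sized on a Zetasizer Nano ZS, which also reported their polydispersity index.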

For series [2] the following is noted: N/P 3, i.v. bolus at 5 mpk, Sprague Dawley rats; 5 mg/kg.
Experimental: Sprague Dawley rats were administered with nanoparticles of the disclosure via i.v. bolus at 5 mpk. The nanoparticle contained two mRNA encoding a broadly neutralizing influenza antibody in a 2:1 ratio.
Series [3] in a line: Encapsulation efficiency of RNA (QUANT-IT RIBOGREEN RNA assay). Format: physicochemical. In short, it runs like this:
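RiboGreen fluorescence (ex ~480, em ~520 nm) compared between intact samples and Triton X-100-lysed samples after 15 min at 37 °C in TE buffer, pH 7.5. Percent free RNA is the blank-corrected intact/disrupted ratio.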

The next series deals with hEPO mRNA. Put plainly: Pretreatment study in Cynomolgus monkeys (standard MC3 formulation, hEPO mRNA). Format: in vivo. The conditions noted are these: MC3 formulation once weekly for four weeks. How it is done:
The effects of pretreatment to non-human primates were evaluated using a standard MC3 formulation including an mRNA encoding hEPO. Male monkeys were administered the nanoparticle composition once weekly for four weeks at a dose rate of 5 ml/kg/h and were pretreated with either methotrexate or dexamethasone.
As shown, in the absence of any pretreatment, maximal expression levels decreased nearly 70% over the course of the study.

The nature of series [4]: Lipid clearance from mouse tissues after weekly dosing. In kind it is in vivo. To be noted: 0.25 mg/kg mRNA on days 1, 8, and 15. How it is done: Repeat dosing of mRNA in an MC3-based LNP for a therapeutic indication would be expected to lead to accumulation of MC3 in tissues, based on the measured half-life. Therefore it was investigated whether the favorable single dose pharmacokinetics of compound 18 were maintained with weekly dosing. Clearance of MC3 and compound 18 from multiple mouse tissues was measured after dosing 0.05 mg/kg mRNA on day 1, 8 and 15 (FIG. 30A). Following dosing with MC3 LNPs, lipid was detected in liver, spleen, plasma, kidney, heart and lung, with liver and spleen containing the largest concentrations (FIG. 30A, for full panel of tissues see FIG. 35A). […] Compound 18 was also detected in plasma, lung, and kidney, but not in heart (FIG. 35A).
In vitro metabolite identification studies using compound 18 were also performed. […] The disappearance of parent compound 18 and the primary metabolite, compound 166, from mouse liver tissue was measured after dosing 0.25 mg/kg mRNA on days 1, 8, and 15.

The subject of the next series is human hepatocytes. Description: Metabolite profiling of Compound 18 with human hepatocytes. Format: in vitro ADME. Further details: key to Detection in incubation: +: Detected; ND: Not detected. The conditions noted are these: for Detection in incubation: Compound 18 (10 μM), human hepatocytes. How it is done:
The results of metabolic profiling and characterization for compound 18 incubated with human hepatocytes or human plasma are summarized in Tables 41 and 42, respectively.

Series [5] is described as follows: Metabolite identification of Compound 18 in human plasma. The arrangement: key to Detection in incubation: +: Detected; ND: Not detected. In kind it is in vitro ADME. To be noted: for Detection in incubation: Compound 18 (10 μM), human plasma. The procedure: Metabolite Identification: Compound 18 (10 μM) was incubated with human plasma (29.0 mg protein/incubation) in incubation mixtures (200 μL final incubation volume) that consisted of 50/50v/v neat plasma (undiluted)/substrate solution in 50 mM phosphate buffer, pH 7.4). The plasma was obtained from male and female donors and contained K2EDTA anticoagulant. Reactions were started by addition of the substrate solution to human plasma and were stopped at four designated time points (0, 30, 60 and 90 min) by the addition of 600 μL of stop reagent (acetonitrile). Stopped incubation samples were centrifuged (e.g., 10,000×g for 10 min at 10° C.) and the supernatant fractions were analyzed by LC-MS/MS to characterize the metabolites formed from compound 18. Additional incubations were performed with the positive control procaine (5 μM) to establish competency of the test system. Samples were analyzed by LC-MS/MS.

`CCCCCCCCC(CC)OC(=O)CCCCCCCN(CCCCCCCC(=O)OC(CCCCCCCC)CCCCCCCC)CCCNc1c(NC)c(=O)c1=O` (centres unmarked) [Compound 301, Heptadecan-9-yl 8-((3-((2-(methylamino)-3,4-dioxocyclobut-1-en-1-yl)amino)propyl)(8-oxo-8-(undecan-3-yloxy)octyl)amino)octanoate]: the results for the Diameter in series [1] (N/P 3 (Table 43)) and in series [1] (N/P 5.8 (Table 43)) were 68 nm and 69 nm, respectively. Moreover, the PDI in series [1] (N/P 3 (Table 43)) is 0.09; in series [1] (N/P 5.8 (Table 43)) it was 0.24. Also, in series [2], the “Clinical Observations” value is reported as “signs of decreased activity”. Also, the “% EE” value in series [3] (N/P 3 (Table 43)) stood at 86%; in series [3] (N/P 5.8 (Table 43)), 96%.

Consider `CN(Cc1cnc2nc(N)nc(N)c2n1)c1ccc(C(=O)N[C@@H](CCC(=O)O)C(=O)O)cc1` [Methotrexate, methotrexate], for which the “effect of pretreatment on hEPO protein expression” value with hEPO mRNA is listed as “did not confer any particular beneficial effect”.

Consider `CCCCCCCCC(CCCCCCCC)OC(=O)CCCCCCCN(CCO)CCCCCCCC(=O)O` [Compound 166, 8-((8-(Heptadecan-9-yloxy)-8-oxooctyl)(2-hydroxyethyl)amino)octanoic acid], for which, in series [4], the “disappearance from mouse liver tissue” value is recorded as “rapid clearance”. Besides, the Proposed biotransformation entry (in the series with human hepatocytes (Compound 18 (10 μM) with human hepatocytes (1 million cells/mL)); in series [5] (Compound 18 (10 μM) with human plasma (29.0 mg protein/incubation))) was “Ester hydrolysis” in each case. Besides, the Detection in incubation entry (with human hepatocytes (60 min); in the series on human hepatocytes (120 min); in the series with human hepatocytes (240 min); in series [5] (30 min); in series [5] (60 min); in series [5] (90 min)) was “+” in each case.
